Reference: ChEMBL document CHEMBL1201862, “PubChem BioAssay data set” (2004)
Activity calls are given as the source filed them.

How the values were obtained:
P388/ADR = assay: cells; type: functional; details: Mus musculus
SN12K1 = assay: cells; type: functional; details: Homo sapiens
P388 = assay: cells; type: functional; details: Mus musculus
[1] = biological target: Glyceraldehyde-3-phosphate dehydrogenase (Homo sapiens, UniProt P04406)
cells [2] = type: functional, cell-based
cells [3] = type: functional, cell-based; remark: listed apart in the source
H4 = assay: Luminescence Cell-Based Dose Response HTS to Identify Activators of 5'UTR Stem-Loop Driven Prion Protein mRNA Translation in H4 Neuroglioblastoma Cells. [Related pubchem assays: 1829 (Project Summary), 1814 (Primary HTS)]; type: functional; details: Homo sapiens
[4] = Luminescence Cell-Based Dose Response HTS to Identify Activators of Luciferase Translation or Activity in H4 […] Cells. [Related pubchem assays: 1829 (Project Summary), 1814 (Primary HTS)]; type: functional
[5] = biological target: Heat shock protein HSP 90-alpha (Homo sapiens, UniProt P07900); type: functional, organism-based
[6] = Luminescence Cell-Based Dose Retest to Confirm Inhibitors of Cancer Stem Cells. [Related pubchem assays (depositor defined):AID2717, AID2721]; type: functional; details: Homo sapiens
[7] = cytotoxicity in HEK-293T cells, dose response, cytotoxicity control for TCR NF-kB inhibitor project, luminescence, T-cell screen hits (AID 489026); type: functional, cell-based;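 further: cells exposed to compound about 14 hours before the viability readout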
[8] = biological target: T1, Zinc finger protein mex-5 (Caenorhabditis elegans, UniProt Q9XUB2); assay: MEX-5/TCR-2 RNA interaction inhibitors, dose response, biochemical, C. elegans, fluorescence polarization (AID 1960)
T1 sequence (Q9XUB2 whole entry): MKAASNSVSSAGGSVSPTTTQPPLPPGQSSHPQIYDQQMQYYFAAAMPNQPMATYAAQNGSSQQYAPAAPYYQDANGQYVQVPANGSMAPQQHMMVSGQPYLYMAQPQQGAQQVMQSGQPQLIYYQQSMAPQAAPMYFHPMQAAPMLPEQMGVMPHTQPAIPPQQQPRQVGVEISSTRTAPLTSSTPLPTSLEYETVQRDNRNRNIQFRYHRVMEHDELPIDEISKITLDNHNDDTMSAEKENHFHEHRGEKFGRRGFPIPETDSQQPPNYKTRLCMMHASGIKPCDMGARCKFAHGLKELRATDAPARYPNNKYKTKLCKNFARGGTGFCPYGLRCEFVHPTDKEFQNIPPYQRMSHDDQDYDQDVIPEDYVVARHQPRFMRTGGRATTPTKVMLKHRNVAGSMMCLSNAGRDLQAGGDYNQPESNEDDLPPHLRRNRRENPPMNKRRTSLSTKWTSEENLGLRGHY

[9] = biological target: T2, RNA-binding protein pos-1 (Caenorhabditis elegans, UniProt G5EF15); assay: inhibitors of POS-1/mex-3 RNA binding, dose response, biochemical, fluorescence polarization (AID 1964);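 further: purified POS-1 fused to maltose binding protein made in E. coli; potency of compounds blocking POS-1 binding to fluorescent RNA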
T2 sequence (G5EF15 whole entry): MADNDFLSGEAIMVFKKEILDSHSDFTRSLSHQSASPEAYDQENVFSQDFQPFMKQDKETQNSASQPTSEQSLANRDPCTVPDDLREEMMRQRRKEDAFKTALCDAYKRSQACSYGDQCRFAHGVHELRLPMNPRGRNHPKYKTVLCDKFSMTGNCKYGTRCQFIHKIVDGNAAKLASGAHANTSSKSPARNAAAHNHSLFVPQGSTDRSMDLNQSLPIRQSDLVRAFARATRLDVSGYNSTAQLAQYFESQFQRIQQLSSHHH

[10] = A549 cell cytotoxicity, dose response, cytotoxicity control, plate reader, cherry-pick, antagonist series (AID 743412); type: functional, cell-based
[11] = LGR2 antagonists, dose response, cell-based, HEK293, CRE-luciferase reporter, cherry pick, set 2 (AID 743343); type: functional;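 further: transfected cells were stimulated with diluted bursicon conditioned medium after compound addition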
[12] = MC4R antagonists, dose response, counter-screen for LGR2 antagonist project, cell-based, plate reader, cherry pick (AID 743444); type: functional;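 further: transfected HEK 293 cells stimulated with alpha-MSH peptide; potency of inhibitors of the alpha-MSH evoked signal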
Streptokinase A = biological target: T3, Streptokinase A (Streptococcus pyogenes serotype M1, UniProt P10520); assay: S. pyogenes streptokinase expression inhibitors, potency, dose response, plasminogen activation absorbance, OD405 (AID 1914); type: functional, Streptococcus pyogenes M1 GAS;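 further: secreted streptokinase activity via plasminogen activation per viability signal from cell pellet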
T3 sequence (P10520 whole entry): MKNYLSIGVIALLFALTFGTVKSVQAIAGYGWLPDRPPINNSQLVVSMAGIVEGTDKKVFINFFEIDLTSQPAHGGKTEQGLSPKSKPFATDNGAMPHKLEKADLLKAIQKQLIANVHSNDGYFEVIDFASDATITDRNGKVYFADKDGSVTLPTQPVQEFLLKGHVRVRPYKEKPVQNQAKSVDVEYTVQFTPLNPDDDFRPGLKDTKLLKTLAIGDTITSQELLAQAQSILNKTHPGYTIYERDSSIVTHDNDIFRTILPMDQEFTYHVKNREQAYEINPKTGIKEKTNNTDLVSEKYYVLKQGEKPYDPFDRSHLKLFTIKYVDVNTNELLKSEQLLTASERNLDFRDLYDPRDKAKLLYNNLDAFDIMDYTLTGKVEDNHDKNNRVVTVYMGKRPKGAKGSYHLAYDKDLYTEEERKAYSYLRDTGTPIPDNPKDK

Fatty acid synthase [13] = biological target: T4, Fatty acid synthase (Homo sapiens, UniProt P49327); assay: FAS thioesterase domain inhibitors, dose response, biochemical, kinetic fluorescence intensity (AID 624326); type: functional;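 further: rate of fluorescence rise from hydrolysis of a fluorogenic O-methyl fluorescein ester substrate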
Fatty acid synthase [14] = biological target: T4, Fatty acid synthase; assay: FAS thioesterase domain inhibitors, dose response, biochemical, endpoint fluorescence intensity, uHTS hits (AID 624327); type: functional;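 further: fluorescence from hydrolysis of an O-methyl fluorescein acyl ester substrate by the enzyme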
Streptococcus = assay: Group A Streptococcus viability loss, dose response, counter-screen for streptokinase expression inhibitor project, luminescence, BacTiterGlo (AID 1915); type: functional, organism-based;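 further: potency for reduction of bacterial viability or growth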
[15] = tested on: Streptococcus sp. 'group A'; assay: growth inhibition of control SK(-) GAS strain, dose response, counter-screen for streptokinase expression inhibitor project, luminescence, kanamycin, BacTiterGlo, confirmation (AID 1900); type: functional, organism-based
Large T antigen = Large T antigen (Simian virus 40, UniProt P03070); type: functional, Betapolyomavirus macacae;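 further: Confirmatory-stage PubChem screen for compounds that inhibit SV40 T antigen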
Large T antigen, sequence (P03070 whole entry): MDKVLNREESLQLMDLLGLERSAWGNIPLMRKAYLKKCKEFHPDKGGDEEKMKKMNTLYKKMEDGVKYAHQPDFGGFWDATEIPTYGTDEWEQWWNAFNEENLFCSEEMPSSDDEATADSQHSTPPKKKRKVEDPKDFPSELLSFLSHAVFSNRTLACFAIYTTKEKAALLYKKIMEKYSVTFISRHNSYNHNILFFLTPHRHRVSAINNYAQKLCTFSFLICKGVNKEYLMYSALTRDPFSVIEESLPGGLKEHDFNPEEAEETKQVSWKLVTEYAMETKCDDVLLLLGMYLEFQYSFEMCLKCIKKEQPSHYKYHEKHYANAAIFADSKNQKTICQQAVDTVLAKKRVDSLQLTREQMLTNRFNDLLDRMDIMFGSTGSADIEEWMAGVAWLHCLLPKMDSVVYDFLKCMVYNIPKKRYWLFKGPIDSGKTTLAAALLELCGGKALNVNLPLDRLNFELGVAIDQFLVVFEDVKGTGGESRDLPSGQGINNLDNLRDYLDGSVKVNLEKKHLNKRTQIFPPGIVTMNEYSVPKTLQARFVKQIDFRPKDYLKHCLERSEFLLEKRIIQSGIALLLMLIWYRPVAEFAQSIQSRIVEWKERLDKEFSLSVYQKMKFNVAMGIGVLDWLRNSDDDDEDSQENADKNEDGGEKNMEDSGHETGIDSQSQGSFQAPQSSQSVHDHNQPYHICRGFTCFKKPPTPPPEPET

T4 sequence (P49327 whole entry, the tested form may be a part): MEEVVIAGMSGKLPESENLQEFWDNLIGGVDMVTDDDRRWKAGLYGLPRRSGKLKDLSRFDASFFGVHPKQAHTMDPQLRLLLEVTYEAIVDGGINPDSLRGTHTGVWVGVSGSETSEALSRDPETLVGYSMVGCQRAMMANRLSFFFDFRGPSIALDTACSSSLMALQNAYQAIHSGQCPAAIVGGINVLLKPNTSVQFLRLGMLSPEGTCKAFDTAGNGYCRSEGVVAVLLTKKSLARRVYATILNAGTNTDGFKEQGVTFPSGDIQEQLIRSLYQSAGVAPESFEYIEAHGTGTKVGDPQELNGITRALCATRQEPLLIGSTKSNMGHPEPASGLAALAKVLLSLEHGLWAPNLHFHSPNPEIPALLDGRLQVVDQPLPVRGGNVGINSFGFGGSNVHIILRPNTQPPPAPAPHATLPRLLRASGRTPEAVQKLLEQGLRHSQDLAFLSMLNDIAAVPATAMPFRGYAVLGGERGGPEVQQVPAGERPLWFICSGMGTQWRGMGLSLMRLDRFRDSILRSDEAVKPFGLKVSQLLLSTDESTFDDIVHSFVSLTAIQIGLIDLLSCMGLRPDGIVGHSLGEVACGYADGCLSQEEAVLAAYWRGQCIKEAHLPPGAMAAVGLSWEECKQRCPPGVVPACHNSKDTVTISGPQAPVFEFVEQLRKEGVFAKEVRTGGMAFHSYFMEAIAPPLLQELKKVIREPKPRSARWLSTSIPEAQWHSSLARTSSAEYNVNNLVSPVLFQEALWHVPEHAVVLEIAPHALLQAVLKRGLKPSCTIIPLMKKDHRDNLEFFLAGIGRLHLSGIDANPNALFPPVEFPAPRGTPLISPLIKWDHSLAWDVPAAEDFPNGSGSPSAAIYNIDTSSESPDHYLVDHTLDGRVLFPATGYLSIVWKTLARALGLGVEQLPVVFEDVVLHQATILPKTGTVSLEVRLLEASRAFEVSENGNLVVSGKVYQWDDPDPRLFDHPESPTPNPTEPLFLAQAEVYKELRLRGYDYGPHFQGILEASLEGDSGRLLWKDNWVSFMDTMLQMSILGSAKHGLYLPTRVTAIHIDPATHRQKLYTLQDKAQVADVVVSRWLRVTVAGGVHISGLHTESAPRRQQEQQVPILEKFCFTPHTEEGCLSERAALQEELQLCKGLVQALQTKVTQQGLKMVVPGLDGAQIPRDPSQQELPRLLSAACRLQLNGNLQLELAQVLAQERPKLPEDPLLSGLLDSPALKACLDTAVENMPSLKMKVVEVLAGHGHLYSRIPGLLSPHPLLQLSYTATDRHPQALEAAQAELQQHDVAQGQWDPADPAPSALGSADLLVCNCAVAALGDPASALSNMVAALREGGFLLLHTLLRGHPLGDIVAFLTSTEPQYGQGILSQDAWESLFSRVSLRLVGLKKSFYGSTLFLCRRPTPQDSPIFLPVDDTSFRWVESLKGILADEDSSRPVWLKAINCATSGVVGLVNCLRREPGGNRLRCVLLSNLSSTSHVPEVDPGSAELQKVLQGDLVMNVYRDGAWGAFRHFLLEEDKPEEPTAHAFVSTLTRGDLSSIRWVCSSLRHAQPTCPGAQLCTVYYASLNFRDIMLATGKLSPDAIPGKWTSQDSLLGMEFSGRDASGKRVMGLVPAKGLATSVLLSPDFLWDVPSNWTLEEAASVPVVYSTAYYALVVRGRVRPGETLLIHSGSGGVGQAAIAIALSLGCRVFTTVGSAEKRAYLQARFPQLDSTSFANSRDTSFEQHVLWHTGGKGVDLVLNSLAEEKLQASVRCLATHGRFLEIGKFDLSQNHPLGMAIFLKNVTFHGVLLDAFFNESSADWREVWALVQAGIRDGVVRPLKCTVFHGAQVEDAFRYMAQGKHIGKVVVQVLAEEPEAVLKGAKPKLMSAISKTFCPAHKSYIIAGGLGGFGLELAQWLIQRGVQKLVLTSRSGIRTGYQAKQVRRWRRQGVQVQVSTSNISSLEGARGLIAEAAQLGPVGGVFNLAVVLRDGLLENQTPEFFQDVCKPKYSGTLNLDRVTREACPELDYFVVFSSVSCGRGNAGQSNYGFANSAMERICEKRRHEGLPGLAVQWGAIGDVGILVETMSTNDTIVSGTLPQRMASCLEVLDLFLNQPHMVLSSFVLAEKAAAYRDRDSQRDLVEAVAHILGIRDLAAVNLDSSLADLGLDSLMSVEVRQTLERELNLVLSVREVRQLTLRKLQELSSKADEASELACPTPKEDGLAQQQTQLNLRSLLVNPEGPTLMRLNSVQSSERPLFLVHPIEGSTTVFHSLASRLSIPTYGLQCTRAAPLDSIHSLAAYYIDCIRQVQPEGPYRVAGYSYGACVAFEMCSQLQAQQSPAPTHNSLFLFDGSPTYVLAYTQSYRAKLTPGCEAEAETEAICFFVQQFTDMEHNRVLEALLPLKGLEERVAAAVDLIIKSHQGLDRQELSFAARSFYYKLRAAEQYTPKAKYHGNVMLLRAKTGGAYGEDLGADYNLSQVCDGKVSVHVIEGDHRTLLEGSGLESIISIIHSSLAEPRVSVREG
Glyceraldehyde-3-phosphate dehydrogenase, sequence (P04406 whole entry): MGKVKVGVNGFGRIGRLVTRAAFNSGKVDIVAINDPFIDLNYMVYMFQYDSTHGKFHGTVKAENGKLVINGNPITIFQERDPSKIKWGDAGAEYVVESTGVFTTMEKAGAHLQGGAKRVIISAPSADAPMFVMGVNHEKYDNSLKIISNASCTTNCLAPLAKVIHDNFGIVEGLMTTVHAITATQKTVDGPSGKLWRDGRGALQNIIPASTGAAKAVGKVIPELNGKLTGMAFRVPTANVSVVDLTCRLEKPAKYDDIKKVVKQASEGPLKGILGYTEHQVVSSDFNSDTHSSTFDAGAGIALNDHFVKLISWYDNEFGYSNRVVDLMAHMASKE

## CN(C)CCNC(=O)c1cccc2[nH]c(-c3ccccn3)nc12
P388/ADR
  GI50: 21.3 µM (inactive)
SN12K1
  GI50: 25.2 µM (inactive)
P388
  GI50: 14.5 µM (inactive)

## Nc1nc(-c2ccccc2)cn1/N=C/c1cccc([N+](=O)[O-])c1
[1]
  IC50: > 100 µM (not active)

## S=C(Nc1ccc(Cl)cc1)Nc1ccc2c[nH]nc2c1
Cells [2]
  EC50: > 350 µM (not active)
Cells [3]
  EC50: > 350 µM (not active)

## CN(CCO)/N=N/c1n[nH]cc1C(N)=O
P388/ADR
  GI50: > 100 µM (inactive)
SN12K1
  GI50: > 100 µM (inactive)
P388
  GI50: > 100 µM (inactive)

## CCN1CCN(Cc2ccccc2NC(=O)Nc2ccc(C)cc2)CC1
H4
  EC50: 7.09 µM (active)
[4]
  EC50: > 120 µM (not active)

## N=C(Cc1ccc(Cl)cc1Cl)NOC(=O)c1ccc(Br)o1
[5]
  AC50: 3.11 µM (active)

## COc1ccccc1C1=NOC(COc2ccc3c(C)cc(=O)oc3c2)C1 (configuration not stated)
[6]
  AC50: 0.224 µM (active)
[7]
  IC50: > 80 µM (inactive)

## COc1cc([C@@H]2c3cc4c(cc3[C@@H](OC3OC5COC(C)OC5C(O)C3O)[C@H]3COC(=O)[C@H]23)OCO4)cc(OC)c1O (some centres not stated)
P388/ADR
  GI50: 58.6 µM (inactive)
SN12K1
  GI50: 1.17 µM (inactive)
P388
  GI50: 0.275 µM (active)

## O=[N+]([O-])c1ccc(C2=Nc3cc(Cl)ccc3OC2)cc1
[8]
  EC50: > 300 µM (inconclusive)
[9]
  EC50: 90.7 µM (active)

## O=C1C(Cl)=C(N2CCN(Cc3ccccc3)CC2)C(=O)N1c1cccc(C(F)(F)F)c1
[1]
  IC50: > 50 µM (inconclusive)

## O=C(/C=C/c1ccccc1Cl)c1ccc(O)cc1
[5]
  AC50: 4.46 µM (active)

## CN(C)S(=O)(=O)c1cccc(NC(=O)COc2ccccc2C(=O)Nc2ccccc2)c1
[10]
  AC50: 30.6 µM (active)
[11]
  AC50: 20.1 µM (active)
[12]
  AC50: 22.9 µM (active)

## O=C(Nc1ccccc1)Oc1cccc2cccnc12
[5]
  AC50: 3.44 µM (active)

## CCOc1ccccc1NC(=O)CN(c1ccc(OC)cc1)S(=O)(=O)c1c(C)noc1C
[7]
  IC50: > 80 µM (inactive)

## CCOC(=O)c1ccc(NC(=O)c2[nH]cnc2C(=O)N[C@@H](CCCCNC(=O)OC(C)(C)C)C(=O)OC(C)(C)C)cc1
Streptokinase A
  EC50: > 150 µM (not active)
Fatty acid synthase [13]
  IC50: 0.463 µM (active)
Fatty acid synthase [14]
  IC50: 0.539 µM (active)
Streptococcus
  EC50: 55.6 µM (active)
[15]
  EC50: 6.84 µM (active)

## O=C(N/N=C/c1c[nH]c2ccccc12)c1ccc(O)c(O)c1
Large T antigen
  IC50: 9.13 µM (active)

## COc1ccc(C2=CC3=C(Br)C(=O)C(C)(OC(=O)C4CCCC4)C(=O)C3=CO2)cc1 (configuration not stated)
[8]
  EC50: > 300 µM (not active)
[5]
  AC50: 1.68 µM (active)
[9]
  EC50: 43.7 µM (active)

## Cc1cc(C)c2nc(-n3nc(C)cc3N)cc(C)c2c1
H4
  EC50: 1.71 µM (active)
[4]
  EC50: 32.5 µM (active)
